The text below walks through data of PubChem BioAssay (NCI).

Some test systems named below: A549 NSCLC; CAKI-1 renal; K-562 leukemia; KM12 colon; LOX IMVI melanoma; MCF7 breast; NCI-H460 lung; SK-MEL-5 melanoma; SNB-19 CNS; T-47D breast.
Experiment in all cases: inhibition of tumour cell growth, NCI panel, 48 h

SMILES strings stand for the structures.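 These data come from cells grown in 96-well plates and exposed to compound for 48 hours at five concentrations. Abbreviation: GI50, concentration required for 50% inhibition of growth. TGI is the concentration that stops growth completely.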

Consider `O=C(c1ccccc1Cl)n1oc2ccccc2c1=O`, for which the TGI in the experiment on A549 NSCLC, in the experiment with CAKI-1 renal, with K-562 leukemia, in the experiment with KM12 colon, with LOX IMVI melanoma and with MCF7 breast was above 100 µM in each case. For the same compound, the TGI in the experiment with NCI-H460 lung, in the experiment on SK-MEL-5 melanoma, with SNB-19 CNS and in the experiment with T-47D breast was above 100 µM throughout.

On to `C#Cc1cccc(Nc2ncnc3ccc(OCCCCNCCS(C)(=O)=O)cc23)c1`, for which the GI50 in the experiment with A549 NSCLC was 6.43 µM; with CAKI-1 renal it was 2.79 µM; in the experiment with K-562 leukemia, 6.25 µM; in the experiment on KM12 colon it was 9.74 µM; with LOX IMVI melanoma, 4.78 µM; in the experiment with MCF7 breast, 9.5 µM. Besides, the GI50 in the experiment on NCI-H460 lung was 10.5 µM; in the experiment with SK-MEL-5 melanoma it was 4.26 µM; in the experiment on SNB-19 CNS, 15.2 µM; with T-47D breast, 7.2 µM. For the same compound, the TGI in the experiment on A549 NSCLC was above 25 µM; with CAKI-1 renal, above 25 µM; in the experiment with K-562 leukemia, 14.6 µM; in the experiment on KM12 colon, above 25 µM; in the experiment on LOX IMVI melanoma, 11.1 µM; with MCF7 breast, above 25 µM. The TGI with NCI-H460 lung is above 25 µM; in the experiment with SK-MEL-5 melanoma it was 8.63 µM; in the experiment with SNB-19 CNS, above 25 µM; with T-47D breast, above 25 µM.

For `CC1=C(C)C(=O)O[C@@H]([C@](C)(O)[C@]2(O)CC[C@@]3(O)[C@@H]4C[C@H](O)[C@]5(O)[C@@H](O)C=CC(=O)[C@]5(C)[C@H]4CC[C@]23C)C1`, the TGI in the experiment on A549 NSCLC, in the experiment with CAKI-1 renal, in the experiment on K-562 leukemia, in the experiment with KM12 colon, in the experiment on LOX IMVI melanoma and in the experiment with MCF7 breast was above 100 µM in each case. For the same compound, the TGI in the experiment on NCI-H460 lung, in the experiment with SK-MEL-5 melanoma, in the experiment on SNB-19 CNS and in the experiment with T-47D breast was above 100 µM each time.

With `O=C(c1ccc(C(F)(F)F)c(Cl)c1)N(Cc1ccc(Cl)cc1)c1ccc(-c2cc(C(F)(F)F)[nH]n2)c(O)c1`, the GI50 with A549 NSCLC was 1.35 µM; with CAKI-1 renal, 1.01 µM; with K-562 leukemia, 1.05 µM; in the experiment on KM12 colon, 0.951 µM; in the experiment with LOX IMVI melanoma, 0.819 µM; in the experiment on MCF7 breast it was 1.12 µM. Also, the GI50 is 1.16 µM in the experiment with NCI-H460 lung, 0.816 µM in the experiment with SK-MEL-5 melanoma, 1.61 µM in the experiment on SNB-19 CNS and 0.948 µM in the experiment with T-47D breast. Further, the TGI in the experiment with A549 NSCLC was 5.11 µM; in the experiment with CAKI-1 renal it was 3.04 µM; with K-562 leukemia, 5.16 µM; in the experiment with KM12 colon, 2.19 µM; with LOX IMVI melanoma it was 1.5 µM; in the experiment with MCF7 breast it was 3.85 µM. Also, the TGI turned out to be 3.12 µM in the experiment with NCI-H460 lung, 1.55 µM in the experiment with SK-MEL-5 melanoma, 6.35 µM with SNB-19 CNS and 3.43 µM with T-47D breast.

Consider `O=c1c2ccccc2c(/C=N\NC2=NCCN2)c2oc3ccccc3n12`, for which the GI50 is 16.4 µM in the experiment with A549 NSCLC; 27.2 µM in the experiment on CAKI-1 renal; 22.2 µM in the experiment with K-562 leukemia; 16.7 µM with KM12 colon; 13.2 µM in the experiment on LOX IMVI melanoma; 18.5 µM in the experiment with MCF7 breast. Also, the GI50 was 17.8 µM in the experiment on NCI-H460 lung, 21.3 µM in the experiment on SK-MEL-5 melanoma, 22.5 µM with SNB-19 CNS and 17.6 µM in the experiment with T-47D breast. Besides, the TGI was 60.3 µM in the experiment on A549 NSCLC; above 100 µM with CAKI-1 renal; above 100 µM in the experiment with K-562 leukemia; 34.4 µM in the experiment with KM12 colon; 31.3 µM with LOX IMVI melanoma; 40.8 µM in the experiment with MCF7 breast. Besides, the TGI with NCI-H460 lung turned out to be 39.5 µM; in the experiment on SK-MEL-5 melanoma, 41.7 µM; with SNB-19 CNS it was 51.3 µM; in the experiment on T-47D breast, 36 µM.

Regarding `CCOC(=O)C1=C(C)NC(=O)NC1CN1C(=O)c2ccccc2C1=O` (stereo not given), the GI50 with A549 NSCLC, with CAKI-1 renal, in the experiment on K-562 leukemia, with KM12 colon, in the experiment on LOX IMVI melanoma and in the experiment on MCF7 breast was above 100 µM throughout. For the same compound, the GI50 with NCI-H460 lung, in the experiment on SK-MEL-5 melanoma, in the experiment on SNB-19 CNS and in the experiment with T-47D breast was above 100 µM in each case. Moreover, the TGI with A549 NSCLC, with CAKI-1 renal, with K-562 leukemia, in the experiment on KM12 colon, in the experiment on LOX IMVI melanoma and with MCF7 breast was above 100 µM throughout. Further, the TGI in the experiment with NCI-H460 lung, in the experiment on SK-MEL-5 melanoma, with SNB-19 CNS and in the experiment on T-47D breast was above 100 µM throughout.

In the case of `COc1ccc2c3c1OC1C(OC)(OC)C=C[C@@]4(Br)[C@@H](C2)N(CC2CC2)CC[C@]314` (stereo not given in full), the TGI in the experiment with A549 NSCLC, in the experiment with CAKI-1 renal, in the experiment on K-562 leukemia, in the experiment with KM12 colon, with LOX IMVI melanoma and with MCF7 breast was above 100 µM each time. Besides, the TGI in the experiment on NCI-H460 lung, in the experiment with SK-MEL-5 melanoma, in the experiment with SNB-19 CNS and with T-47D breast was above 100 µM throughout.

Turning to `CCCCNS(=O)(=O)c1n[nH]c(=O)[nH]c1=O`, the TGI in the experiment with A549 NSCLC, in the experiment with CAKI-1 renal, in the experiment with K-562 leukemia, with KM12 colon, with LOX IMVI melanoma and in the experiment with MCF7 breast was above 100 µM each time. The TGI in the experiment with NCI-H460 lung, with SK-MEL-5 melanoma, with SNB-19 CNS and in the experiment on T-47D breast was above 100 µM each time.

On to `COc1cc([N+](=O)[O-])c(OC)cc1-c1nc2sc(C)cn2c1/C(N)=N/C(=N)N`, for which the GI50 in the experiment with A549 NSCLC was 40.7 µM; in the experiment with CAKI-1 renal it was above 100 µM; with K-562 leukemia, 2.59 µM; in the experiment on KM12 colon, 2.24 µM; in the experiment with LOX IMVI melanoma, 30.4 µM; with MCF7 breast, 3.92 µM. The GI50 was 43.7 µM in the experiment on NCI-H460 lung, 28.3 µM in the experiment with SK-MEL-5 melanoma, 39.4 µM in the experiment with SNB-19 CNS and above 100 µM in the experiment with T-47D breast. For the same compound, the TGI was above 100 µM in the experiment on A549 NSCLC; above 100 µM in the experiment with CAKI-1 renal; above 100 µM in the experiment on K-562 leukemia; 11.1 µM in the experiment with KM12 colon; above 100 µM in the experiment with LOX IMVI melanoma; above 100 µM in the experiment on MCF7 breast. Also, the TGI in the experiment with NCI-H460 lung, with SK-MEL-5 melanoma, in the experiment on SNB-19 CNS and with T-47D breast was above 100 µM each time.
